Experimental data taken from ChEMBL document CHEMBL3885881, “DrugMatrix”.

Species: Rattus norvegicus
Test: DrugMatrix - Regimen: Daily Repeat
Assay type: toxicity, organism-based, Sprague-Dawley
Parameters: regimen Daily Repeat, gender Male, age 6-8 weeks
Conditions: in vivo, po, route oral GAVAGE, vehicle .5 % CMC; for ABSOLUTE BASOPHIL / ABSOLUTE EOSINOPHIL / ABSOLUTE LYMPHOCYTE / ABSOLUTE MONOCYTE / ABSOLUTE SEGMENTED NEUTROPHIL / BASOPHIL / EOSINOPHIL / ERYTHROCYTE COUNT / HEMATOCRIT / HEMOGLOBIN / LEUKOCYTE COUNT / LYMPHOCYTE / MEAN CORPUSCULAR HEMOGLOBIN / MEAN CORPUSCULAR HEMOGLOBIN CONCENTRATION / MEAN CORPUSCULAR VOLUME / MONOCYTE / NEUTROPHIL / NUCLEATED RED BLOOD CELLS / PLATELET COUNT: tissue Blood; for ALANINE AMINOTRANSFERASE / ALBUMIN / ALKALINE PHOSPHATASE / ASPARTATE AMINOTRANSFERASE / BLOOD UREA NITROGEN / CARBON DIOXIDE / CHLORIDE / CHOLESTEROL / CREATINE PHOSPHOKINASE / CREATININE / GLUCOSE / LACTATE DEHYDROGENASE / LIPASE / PHOSPHORUS / POTASSIUM / SODIUM / TOTAL BILIRUBIN / TOTAL PROTEIN / URIC ACID: tissue Plasma
[1] = 0 mg/kg, 72 h, dose level Control, time 3 day
[2] = 0 mg/kg, 120 h, dose level Control, time 5 day
[3] = 200 mg/kg, 72 h, dose level Low, time 3 day

With `CCC1=C(C)CN(C(=O)NCCc2ccc(S(=O)(=O)NC(=O)N[C@H]3CC[C@H](C)CC3)cc2)C1=O` [GLIMEPIRIDE] the “ABSOLUTE BASOPHIL” value [1] was 0 CELLS/uL, the “ABSOLUTE EOSINOPHIL” value [1] was 0 CELLS/uL and the “ABSOLUTE LYMPHOCYTE” value [1] was 12191.17 CELLS/uL. The “ABSOLUTE MONOCYTE” value [1] was 183.17 CELLS/uL, the “ABSOLUTE SEGMENTED NEUTROPHIL” value [1] was 1192.33 CELLS/uL and the BASOPHIL [1] was 0%. The EOSINOPHIL [1] was 0%, the “ERYTHROCYTE COUNT” value [1] was 5.51 x10E6/uL and the HEMATOCRIT [1] was 35.45%. The HEMOGLOBIN [1] was 13.82 G/DL, the “LEUKOCYTE COUNT” value [1] was 13.57 x10E3/uL and the LYMPHOCYTE [1] was 89.83%. For the same compound, the “MEAN CORPUSCULAR HEMOGLOBIN” value [1] was 25.1 pg, the “MEAN CORPUSCULAR HEMOGLOBIN CONCENTRATION” value [1] was 38.98 G/DL and the “MEAN CORPUSCULAR VOLUME” value [1] was 64.42 fL. The MONOCYTE [1] was 1.33%, the NEUTROPHIL [1] was 8.83% and the “NUCLEATED RED BLOOD CELLS” value [1] was 0 /100WBC. The “PLATELET COUNT” value [1] was 1118.17 x10E3/uL, the “ALANINE AMINOTRANSFERASE” value [1] was 55 u/L and the ALBUMIN [1] was 4.15 G/DL. The “ALKALINE PHOSPHATASE” value [1] was 449.5 u/L, the “ASPARTATE AMINOTRANSFERASE” value [1] was 112.83 u/L and the “BLOOD UREA NITROGEN” value [1] was 17.33 mg/dL. The “CARBON DIOXIDE” value [1] was 29.5 mmol/L, the CHLORIDE [1] was 101 MEQ/L and the CHOLESTEROL [1] was 70 mg/dL. The “CREATINE PHOSPHOKINASE” value [1] was 1325.83 u/L, the CREATININE [1] was 0.18 mg/dL and the GLUCOSE [1] was 171.5 mg/dL. For the same compound, the “LACTATE DEHYDROGENASE” value [1] was 386 u/L, the LIPASE [1] was 10 u/L and the PHOSPHORUS [1] was 11.57 mg/dL. The POTASSIUM [1] was 6.21 MEQ/L, the SODIUM [1] was 141.65 MEQ/L and the “TOTAL BILIRUBIN” value [1] was 0.15 mg/dL. For the same compound, the “TOTAL PROTEIN” value [1] was 5.75 G/DL, the “URIC ACID” value [1] was 1.28 mg/dL and the “ABSOLUTE BASOPHIL” value [2] was 0 CELLS/uL. The “ABSOLUTE EOSINOPHIL” value [2] was 138.17 CELLS/uL, the “ABSOLUTE LYMPHOCYTE” value [2] was 13283.17 CELLS/uL and the “ABSOLUTE MONOCYTE” value [2] was 303.83 CELLS/uL. The “ABSOLUTE SEGMENTED NEUTROPHIL” value [2] was 1308.17 CELLS/uL, the BASOPHIL [2] was 0% and the EOSINOPHIL [2] was 1%. For the same compound, the “ERYTHROCYTE COUNT” value [2] was 5.32 x10E6/uL, the HEMATOCRIT [2] was 33.8% and the HEMOGLOBIN [2] was 13.63 G/DL. For the same compound, the “LEUKOCYTE COUNT” value [2] was 15.03 x10E3/uL, the LYMPHOCYTE [2] was 88.33% and the “MEAN CORPUSCULAR HEMOGLOBIN” value [2] was 25.68 pg. For the same compound, the “MEAN CORPUSCULAR HEMOGLOBIN CONCENTRATION” value [2] was 40.35 G/DL, the “MEAN CORPUSCULAR VOLUME” value [2] was 63.67 fL and the MONOCYTE [2] was 1.83%. The NEUTROPHIL [2] was 8.83%, the “NUCLEATED RED BLOOD CELLS” value [2] was 0 /100WBC and the “PLATELET COUNT” value [2] was 1097.5 x10E3/uL. The “ALANINE AMINOTRANSFERASE” value [2] was 54.5 u/L, the ALBUMIN [2] was 4.27 G/DL and the “ALKALINE PHOSPHATASE” value [2] was 337 u/L. The “ASPARTATE AMINOTRANSFERASE” value [2] was 94.67 u/L, the “BLOOD UREA NITROGEN” value [2] was 17 mg/dL and the “CARBON DIOXIDE” value [2] was 28.33 mmol/L. For the same compound, the CHLORIDE [2] was 101.5 MEQ/L, the CHOLESTEROL [2] was 71.33 mg/dL and the “CREATINE PHOSPHOKINASE” value [2] was 628.17 u/L. For the same compound, the CREATININE [2] was 0.19 mg/dL, the GLUCOSE [2] was 177.83 mg/dL and the “LACTATE DEHYDROGENASE” value [2] was 500.5 u/L. The LIPASE [2] was 9.5 u/L, the PHOSPHORUS [2] was 12.3 mg/dL and the POTASSIUM [2] was 5.63 MEQ/L. For the same compound, the SODIUM [2] was 143.03 MEQ/L, the “TOTAL BILIRUBIN” value [2] was 0.2 mg/dL and the “TOTAL PROTEIN” value [2] was 6.02 G/DL. For the same compound, the “URIC ACID” value [2] was 1.5 mg/dL, the “ABSOLUTE BASOPHIL” value [3] was 0 CELLS/uL and the “ABSOLUTE EOSINOPHIL” value [3] was 128.33 CELLS/uL. For the same compound, the “ABSOLUTE LYMPHOCYTE” value [3] was 12992 CELLS/uL, the “ABSOLUTE MONOCYTE” value [3] was 35 CELLS/uL and the “ABSOLUTE SEGMENTED NEUTROPHIL” value [3] was 1711.33 CELLS/uL. For the same compound, the BASOPHIL [3] was 0%, the EOSINOPHIL [3] was 1% and the “ERYTHROCYTE COUNT” value [3] was 5.2 x10E6/uL. The HEMATOCRIT [3] was 33.43%, the HEMOGLOBIN [3] was 13.5 G/DL and the “LEUKOCYTE COUNT” value [3] was 14.87 x10E3/uL. The LYMPHOCYTE [3] was 87%, the “MEAN CORPUSCULAR HEMOGLOBIN” value [3] was 26.03 pg and the “MEAN CORPUSCULAR HEMOGLOBIN CONCENTRATION” value [3] was 40.4 G/DL. The “MEAN CORPUSCULAR VOLUME” value [3] was 64.33 fL, the MONOCYTE [3] was 0.33% and the NEUTROPHIL [3] was 11.67%. The “NUCLEATED RED BLOOD CELLS” value [3] was 0 /100WBC, the “PLATELET COUNT” value [3] was 1286.33 x10E3/uL and the “ALANINE AMINOTRANSFERASE” value [3] was 61.67 u/L. For the same compound, the ALBUMIN [3] was 4.23 G/DL, the “ALKALINE PHOSPHATASE” value [3] was 355.67 u/L and the “ASPARTATE AMINOTRANSFERASE” value [3] was 97.67 u/L. The “BLOOD UREA NITROGEN” value [3] was 16.33 mg/dL, the “CARBON DIOXIDE” value [3] was 24 mmol/L and the CHLORIDE [3] was 103.67 MEQ/L. The CHOLESTEROL [3] was 81.33 mg/dL, the “CREATINE PHOSPHOKINASE” value [3] was 1168 u/L and the CREATININE [3] was 0.16 mg/dL. For the same compound, the GLUCOSE [3] was 150.33 mg/dL, the “LACTATE DEHYDROGENASE” value [3] was 169.33 u/L and the LIPASE [3] was 10 u/L. The PHOSPHORUS [3] was 12.27 mg/dL, the POTASSIUM [3] was 5.69 MEQ/L and the SODIUM [3] was 144.2 MEQ/L. The “TOTAL BILIRUBIN” value [3] was 0.13 mg/dL, the “TOTAL PROTEIN” value [3] was 5.83 G/DL and the “URIC ACID” value [3] was 1.53 mg/dL.
